Laboratory results taken from paper PMC8310591, “Production of trans-cinnamic acid by whole-cell bioconversion from L-phenylalanine in engineered Corynebacterium glutamicum” (Microbial Cell Factories, 2021).

Molecular target: T1, SmPAL (Streptomyces maritimus, UniProt Q9KHJ9)
T1 construct: gene encP; native gene amplified from pHB-104, expressed from pHCMS-SmPAL (PH36 promoter) in Corynebacterium glutamicum ATCC 13032; 56 kDa; no tag mentioned; whole cells, not purified
T1 sequence (Q9KHJ9 1-523): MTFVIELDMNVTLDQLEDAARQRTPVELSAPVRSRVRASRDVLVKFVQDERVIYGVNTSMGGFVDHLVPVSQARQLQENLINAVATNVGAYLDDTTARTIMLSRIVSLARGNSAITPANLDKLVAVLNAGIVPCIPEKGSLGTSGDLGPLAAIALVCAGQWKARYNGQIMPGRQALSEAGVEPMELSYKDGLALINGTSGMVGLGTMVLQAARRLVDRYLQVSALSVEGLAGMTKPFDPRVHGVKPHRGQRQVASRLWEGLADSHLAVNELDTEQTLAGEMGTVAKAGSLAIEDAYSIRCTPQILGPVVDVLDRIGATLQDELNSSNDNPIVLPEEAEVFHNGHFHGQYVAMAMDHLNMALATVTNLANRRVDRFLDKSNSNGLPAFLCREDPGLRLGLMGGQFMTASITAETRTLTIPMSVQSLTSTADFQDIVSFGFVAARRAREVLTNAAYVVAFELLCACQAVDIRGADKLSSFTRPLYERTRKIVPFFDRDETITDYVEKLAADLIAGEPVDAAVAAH
Test: whole-cell bioconversion, HPLC of L-Phe and t-CA
Assay type: cell-based
Details: C. glutamicum harboring pHCMS-SmPAL; 18.2 mM L-Phe; 100 mM Tris-HCl pH 7.5; 30 °C; product trans-cinnamic acid

SMILES: N[C@@H](Cc1ccccc1)C(=O)O [L-phenylalanine]
- whole-cell bioconversion, HPLC of L-Phe and t-CA: the bioconversion of L-Phe to t-CA was immediately observed
